From ChEMBL document CHEMBL3593242, “Crystal structures of the apo form and a complex of human LMW-PTP with a phosphonic acid provide new evidence of a secondary site potentially related to the anchorage of natural substrates” (Bioorg Med Chem, 2015) come the findings set out here.

pKi: −log10 of the molar value.

The target in assay [1] is T1, Low molecular weight phosphotyrosine protein phosphatase (Mus musculus, UniProt Q9D358).
T1 sequence (Q9D358 whole entry): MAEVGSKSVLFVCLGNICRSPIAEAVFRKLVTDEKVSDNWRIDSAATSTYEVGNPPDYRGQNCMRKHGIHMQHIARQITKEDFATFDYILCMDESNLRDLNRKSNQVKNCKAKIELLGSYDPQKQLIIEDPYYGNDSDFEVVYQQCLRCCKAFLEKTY
Kind of assay: Competitive inhibition of mouse LMW-PTP expressed in Escherichia coli using pNPP substrate by Dixon plot.

Assay [2] is described as follows: Inhibition of bovine heart acid phosphatase. Also on record: species or system Bos taurus.
In assay [3] the target is T2, Tyrosine-protein phosphatase non-receptor type 1 (Homo sapiens, UniProt P18031).
T2 sequence (P18031 whole entry): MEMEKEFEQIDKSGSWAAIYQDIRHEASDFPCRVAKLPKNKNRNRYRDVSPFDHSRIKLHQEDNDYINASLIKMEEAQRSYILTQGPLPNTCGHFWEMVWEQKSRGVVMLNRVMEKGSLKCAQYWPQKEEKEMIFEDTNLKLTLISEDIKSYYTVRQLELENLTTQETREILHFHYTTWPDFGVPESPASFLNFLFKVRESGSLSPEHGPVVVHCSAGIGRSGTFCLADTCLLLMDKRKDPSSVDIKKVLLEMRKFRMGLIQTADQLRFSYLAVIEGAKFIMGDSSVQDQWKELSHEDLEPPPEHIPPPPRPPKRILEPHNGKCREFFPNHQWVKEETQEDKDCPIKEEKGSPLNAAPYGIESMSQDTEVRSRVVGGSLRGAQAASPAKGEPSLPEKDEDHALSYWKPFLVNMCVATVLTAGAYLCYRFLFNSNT
Kind of assay: Inhibition of PTP1B (unknown origin) using […] substrate.

The nature of assay [4]: Inhibition of Yersinia-protein YopH using pNPP substrate.
Assay [5] deals with Alkaline phosphatase, placental type (Homo sapiens, UniProt P05187). The assay can be described thus: Inhibition of human placental alkaline phosphatase using p-nitrophenyl phosphate substrate.
Assay [6] deals with T3, Ectonucleotide pyrophosphatase/phosphodiesterase family member 3 (Bos taurus, UniProt P15396).
T3 sequence (P15396 whole entry): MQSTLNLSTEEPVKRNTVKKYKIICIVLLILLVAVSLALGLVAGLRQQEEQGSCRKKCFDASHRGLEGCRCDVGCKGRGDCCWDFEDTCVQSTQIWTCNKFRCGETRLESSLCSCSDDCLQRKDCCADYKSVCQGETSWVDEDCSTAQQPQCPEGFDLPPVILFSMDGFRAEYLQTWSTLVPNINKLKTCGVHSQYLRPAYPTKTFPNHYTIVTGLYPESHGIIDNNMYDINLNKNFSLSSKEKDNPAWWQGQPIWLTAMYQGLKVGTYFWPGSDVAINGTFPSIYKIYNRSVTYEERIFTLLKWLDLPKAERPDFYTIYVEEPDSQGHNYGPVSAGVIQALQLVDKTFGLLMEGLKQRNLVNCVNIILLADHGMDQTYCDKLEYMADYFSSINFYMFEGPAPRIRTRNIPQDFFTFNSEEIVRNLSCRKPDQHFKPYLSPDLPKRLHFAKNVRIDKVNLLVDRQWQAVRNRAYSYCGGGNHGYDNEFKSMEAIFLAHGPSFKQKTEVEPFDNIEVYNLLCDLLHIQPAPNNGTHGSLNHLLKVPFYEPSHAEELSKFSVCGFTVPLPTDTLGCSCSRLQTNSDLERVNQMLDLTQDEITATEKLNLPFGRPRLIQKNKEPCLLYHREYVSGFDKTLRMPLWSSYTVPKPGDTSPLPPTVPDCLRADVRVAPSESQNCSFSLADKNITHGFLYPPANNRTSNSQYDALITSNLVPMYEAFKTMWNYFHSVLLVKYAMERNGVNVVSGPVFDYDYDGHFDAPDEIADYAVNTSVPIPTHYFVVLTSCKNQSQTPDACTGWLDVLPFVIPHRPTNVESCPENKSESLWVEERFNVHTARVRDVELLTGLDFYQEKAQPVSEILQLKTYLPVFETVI
The assay can be described thus: Inhibition of bovine intestinal 5'-nucleotide phosphodiesterase using 4-nitrophenyl phenylphosphonate substrate by spectrophotometry.

Sequence of Alkaline phosphatase, placental type (P05187 whole entry): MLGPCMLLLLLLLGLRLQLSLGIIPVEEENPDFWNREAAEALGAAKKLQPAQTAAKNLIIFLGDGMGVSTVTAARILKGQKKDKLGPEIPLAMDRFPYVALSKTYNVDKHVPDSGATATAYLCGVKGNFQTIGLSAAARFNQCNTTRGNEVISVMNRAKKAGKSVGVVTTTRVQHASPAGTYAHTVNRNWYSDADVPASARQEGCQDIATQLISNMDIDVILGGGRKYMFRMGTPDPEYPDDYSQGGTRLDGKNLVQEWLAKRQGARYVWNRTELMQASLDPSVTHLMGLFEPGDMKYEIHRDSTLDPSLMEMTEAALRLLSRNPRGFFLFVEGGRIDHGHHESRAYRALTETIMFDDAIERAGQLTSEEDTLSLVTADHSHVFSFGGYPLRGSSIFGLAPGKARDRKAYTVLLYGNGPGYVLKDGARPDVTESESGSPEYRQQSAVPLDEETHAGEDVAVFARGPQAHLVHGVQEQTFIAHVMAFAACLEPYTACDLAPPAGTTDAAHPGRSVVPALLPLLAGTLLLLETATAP

Regarding `O=[N+]([O-])c1ccc(CP(=O)(O)O)cc1`, the pKi in assay [1] was 3.91.

In assay [1], `O=P(O)(O)Cc1ccc(CCl)cc1` showed a pKi of 4.33. Compared with the last compound, the pKi is 0.42 log units higher.

On to `O=P(O)(O)Cc1ccccc1` [BENZYLPHOSPHONIC ACID], for which the pKi in assay [2] was 2.34; in assay [3], 2.52; in assay [4], 2.30; in assay [5], 3.24; in assay [6], 2.85.

By pKi is commonly meant −log10 of the Ki, conventionally taken in molar units. Read a low pKi as a large Ki.
